The test system of data set [1] is RCE cells (Rabbit Corneal Epithelial Cells). The data set can be described thus: Malondialdehyde assay (lipid peroxidation / free radical production) after radiation. It is filed as cell-based. The conditions noted are these: 2 h preincubation. The source says:
The malondialdehyde is a product of the lipid peroxidation which occurs following exposure to free radicals of polyinsaturated fat acids. The malondialdehyde production is then routinely interpreted as a production index of the radicals themselves by means of treatment with electromagnetic radiations or oxidant substances. The Q10, as antioxidant, decreases the malondialdehyde production by indicating an action thereof which inhibits the free radicals' formation. To perform the malondialdehyde assay, RCE cells (Rabbit Corneal Epithelial Cells which are rabbit corneal keratocytes immortalized with SV40) have been plated at the density of 5×10^5 cell/plate in 10 plates of Petri with 10-cm diameter and incubated overnight in 5% CO2 atmosphere, 37° C. Then, the plates have been preincubated for 2 hours with Q10 10 μM, Vit.E, Vit. […] At the moment of the test the cells have been detached with trypsin according to standard procedures and counted by means of cell-counting chamber. […]
At 300 μl of buffy coat of each sample, 300 μl of thiobarbituric acid (TBA) by 1% have been added. The mixtures have been incubated at 95° C. for 30 minutes, centrifugated for 20 minutes at 12,000 RPM and the optic absorption of the buffy coat resulting by spettrophotometric analysis at λ=532 nm has been assessed. […]

The test system of data set [2] is RCE cells. The data set can be described thus: Counting of cumulative apoptotic deaths by videomicroscopy at time intervals. The format is cell-based, rabbit. The conditions noted are these: Q10 10 μM in Lutrol F127; 193 nm excimer laser and 254 nm UV; 24-72 hours after radiation; FIG. 6. The source says:
The videomicroscopy at time intervals is up to now one of the few techniques, if not the only one, enabling to have, apart from the cell death-type characterization, the exact quantification thereof too. In fact by continuously considering the cell population it is possible to calculate the number of cumulative deaths without losing any death event due to the disintegration of the cell body which typically occurs during apoptosis.
To perform the experiment RCE cells have been plated at the density of 5×10^5 cells/plate with 10-cm diameter and incubated overnight at 37° C., CO2 10%. Subsequently, the plates have been preincubated for 2 hours with Q10 10 μM dissolved in the Lutrol F127^MT solution or with Lutrol F127™ only. The culture medium has been then replaced by 8 ml of sterile PBS, additioned with Ca^++ and Mg^++ to avoid the cell detachment from the support, and the plates have undergone treatment with excimer laser and λ=254 UV radiation in a Stratalinker apparatus, model 1800 (Stratagene) with various doses. Subsequently the PBS has been replaced by fresh culture medium additioned with the above reagents. […]

Data set [3] has as its system RCE cells. As to the kind of experiment: ATP levels after excimer laser or 254 nm radiation (firefly luciferase kit). The format is cell-based, rabbit. Conditions: Q10 10 μM in Lutrol F127; 2 h preincubation; 193 nm excimer laser (FIG. 2a) or 254 nm UV (FIG. 2b). How it is done:
In order to perform the ATP test, RCE cells have been placed at the density of 5×10^5 cells/plate in 10 plates of Petri with 10-cm diameter and incubated overnight in 5% CO2 atmosphere, 37° C. Subsequently the plates have been preincubated for 2 hours with Q10 at 10 μM dissolved in the Lutrol F127™ solution or with Lutrol F127™ only. The culture medium has been then replaced by 8 ml of sterile PBS, additioned with Ca^++ and Mg^++ to avoid the detach of the cells from the support and the plates have been submitted to treatment with excimer laser (λ=193 nm) as shown by FIG. 2a or with 254 nm ultraviolet laser, as shown in FIG. 2b. Subsequently the PBS has been replaced by fresh culture medium additioned with the above reagents and the plates have been incubated for further 2 hours. At the moment of the assay the cells have been detached with trypsin according to standard procedures and counted by means of cell-counting chamber. […] The ATP quantification in the extracts has been performed by the “ATP Determination Kit” (Molecular Probes, USA) kit, based upon the firefly lucipherase according to the supplier instructions. To detect fluorescence, an analyzer for liquid scintillation (Camberra Packard, USA) preset for the bioluminescence analysis has been utilized.

Data set [4] concerns RCE cells. As to the kind of experiment: Counting of vital cells by trypan blue exclusion test after radiation. The format is cell-based, rabbit. Conditions: Q10 10 μM in Lutrol F127; excimer laser and 254 nm UV (15,000 μJ/cm^2); FIGS. 5a, 5b. How it is done:
However, the fact that the Q10 has a general protection effect against death by radiation is an important data in preventing […] collateral effects. In order to perform the trypan blue test, RCE cells have been plated at a density of 5×10^5 cells/plates with 10-cm diameter incubated overnight at 37° C., […]. Subsequently, the plates have been preincubated for 2 hours with Q10 10 μM dissolved in the Lutrol F127^MT solution or with Lutrol F127™ only. The culture medium has been then replaced by 8 ml of sterile PBS, additioned with Ca^++ and Mg^++ to avoid the cell detachment from the support, and the plates have undergone treatment with excimer laser and λ=254 UV radiation in a Stratalinker apparatus, model 1800 (Stratagene). Subsequently the PBS has been replaced by fresh culture medium additioned with the above reagents. The plates have been incubated for the time shown in FIG. 6a and in FIG. 6b and subsequently detached by trypsin according to standard procedures and resuspended in PBS. To the cell suspension a trypan blue solution in PBS by 1% concentration has been added immediately before the counting performed by means of cell-counting chamber. The number of live cells is shown in the FIGS. 4, 5a and 5b in the non-treated sample percentage.

For data set [5] the following is noted: cited from earlier work.

Turning to `COC1=C(OC)C(=O)C(C/C=C(\C)CC/C=C(\C)CC/C=C(\C)CC/C=C(\C)CC/C=C(\C)CC/C=C(\C)CC/C=C(\C)CC/C=C(\C)CC/C=C(\C)CCC=C(C)C)=C(C)C1=O` [Q10, ubiquinone Q10], the “malondialdehyde levels following treatment with UV at 254 nm” value in data set [1] (Q10 10 μM in Lutrol F127, alone or in combination with Vit.E, Vit.C, 254 nm UV 15,000 μJ/cm^2, FIG. 1a) was “protective effect”. Besides, the “malondialdehyde production following treatment with 193 nm excimer laser” value in data set [1] (Q10 10 μM in Lutrol F127, various doses of 193 nm excimer laser, FIG. 1b) was “reductive effect against the malondialdehyde production”. The cumulative apoptotic deaths entry in data set [2] was “protective effect on cells treated with 193 nm excimer laser and 254 nm UV radiation”. The “ATP level following radiation” value in data set [3] is listed as “protective effect opposing the decrease in the ATP level”. Further, the “vitality of cells (number of live cells, trypan blue)” value in data set [4] is given as “protective effect on the vitality of cells”. Also, the solubility in water entry in data set [5] is given as “non-hydrosoluble substance”.

These data come from patent US6787572B2, “Use of ubiquinone Q10 for the local treatment and prevention of post-surgical ophthalmologic pathologies” (priority 1999, dated 2004).
